This is an account of results in patent US20140378502A1, “Par1 Inhibitors for Use in the Treatment or Prevention of Paramyxoviridae Infections” (Université Laval, priority 2011, published 2014).

One experiment relates to hMPV strain C-85473. The experiment in a line: hMPV-infected BALB/c mice, five-day pre-exposure prophylactic treatment regimen (experiment 2). The following applies: 500 μM, 5-day treatment. The class given is in vivo. The method, then:
hMPV viral titers were determined by 10-fold serial dilutions of virus in 24-well plates containing LLC-MK2 cells. Before infection, cells were washed twice with phosphate-buffered saline (PBS) to remove residual serum proteins that could inhibit trypsin activity. Infected plates were incubated at 37° C. with 5% CO2 and replenished with 1 μl of fresh trypsin (0.0002%) every other day. hRSV viral titers were determined by 10-fold serial dilutions of virus in 24-well plates containing Hep2 cells. Before infection, cells were washed twice with phosphate-buffered saline (PBS). Infected plates were incubated at 37° C. with 5% CO2. On day 4 post infection, plates were fixed with 80% acetone at −20° C. for 30 min, washed with PBS and air dried. The presence of hRSV was detected by an immuno-staining assay using a monoclonal goat Anti-Respiratory Syncytial Virus primary antibody and a donkey anti-Goat IgG Secondary Antibody, HRP conjugate (both from Cederlane). Virus titers were reported as 50% tissue culture infectious doses (TCID50) per ml, per mouse or per gram of lung. The lower limit of detection of the assay is 10^2 TCID50 per gram. TCID50 were calculated by the Reed and Muench method.
In the second protocol, groups of 18 4-6-week-old BALB/c mice (Charles River Laboratories) were infected intranasally with 6-8×10^5 TCID50 hMPV strain C-85473 in 25 μl of OptiMEM™ supplemented with the PAR-1 agonist, PAR-1 antagonist or control peptide at a final concentration of 500 μM. As infected controls, groups of 18 4-6-week-old BALB/c mice (Charles River Laboratories) were infected intranasally with 6-8×10^5 TCID50 hMPV strain C-85473 in 25 μl of OptiMEM™ supplemented with H2O or DMSO. As uninfected control, groups 18 mice were sham infected with the concentrated supernatant of non-infected LLC-MK2 cells supplemented with the PAR-1 agonist, PAR-1 antagonist or control peptide at a final concentration of 500 μM or DMSO. On day 1 through 4 post infection, animals were treated with the PAR-1 agonist, PAR-1 antagonist or control peptide at a final concentration of 50 μM or 500 μM, or H2O or DMSO for control groups, resulting in a 5-day treatment in total. Animals were housed in groups of five and three in micro-isolator cages. The animals were evaluated on a daily basis for mortality, weight loss, and the presence of symptoms. On day 5 post-infection, lungs were removed from six mice per group for the evaluation of viral titres by cell culture and cytokine expression by Iuminex™. Lungs of another six mice per group were removed for histopathological analysis.
On day 5 post infection, six animals per group were sacrificed, the lungs were removed and snap frozen in liquid nitrogen. Lungs were weighed, homogenized in 1 ml of PBS, centrifuged (2000 rpm, 10 min) and the supernatant was used to infect LLC-MK2 monolayers (in case of hMPV-infected mice) or Hep2 monolayer (in case of hRSV-infected mice) for virus titration as reported in the section “Viral titers”.
250 μL of lung homogenates (see section “Pulmonary viral titers”) were added to 250 μl 50 mM KPO4, pH 6.0 buffer containing 0.2% CHAPS {3-[(3-cholamidopropyl)-dimethylammonio]1-1-propanesulfonate} (Sigma) and 0.2% of a protease inhibitor cocktail (Sigma) and stored at −20° C. until the day of analysis. Samples were centrifuged at 13,800×g for 10 min at 4° C., and 50 μl of the supernatant was used for cytokine quantification. Levels of interleukin-4, IL-6, IL-12(p40), IL-12(p70), IFN-γ, KC, MCP-1, MIP-1α, RANTES were determined by the use of a 9-plex mouse bead kits (BioRad™/Millipore™) according to the manufacturer's instructions. Experiments were performed in a 96-well filter plate and results were analysed with the Luminex™ system (Qiagen™).
On day 5 post infection, 6 animals per group were sacrificed, and the lungs were collected at specified time points and fixed with 4% buffered formalin. […]

A further experiment concerns hRSV strain 15 595. The experiment in a line: hRSV Balb/C mouse model, five-day treatment (experiment 4). The class given is in vivo. As to conditions: day 5 post hRSV infection, 500 μM, 5-day treatment, vs untreated and PAR-1 agonist treated mice. The procedure:
The clinical hRSV A strain 15 959 that was passed nine times on Hep2 cells, was grown on Hep2 cells in MEM™ (Life Technologies) supplemented with 2% FBS (Wisent). Hep2 cells were infected with 10 TCID50/Hep2 cell of hRSV 15 959 and plated out into one flask (150 cm^2) until 60% cytopathic effects were observed. Infected monolayers and supernatants were recovered with a cell scraper and sonicated. The pooled preparation was centrifuged (1200 r.p.m., 10 min) to remove cellular debris. Supernatant was aliquoted and stored at −80° C. The same protocol was followed for a flask of uninfected cells for control mice.
hMPV viral titers were determined by 10-fold serial dilutions of virus in 24-well plates containing LLC-MK2 cells. […] Infected plates were incubated at 37° C. with 5% CO2 and replenished with 1 μl of fresh trypsin (0.0002%) every other day. hRSV viral titers were determined by 10-fold serial dilutions of virus in 24-well plates containing Hep2 cells. […] The presence of hRSV was detected by an immuno-staining assay using a monoclonal goat Anti-Respiratory Syncytial Virus primary antibody and a donkey anti-Goat IgG Secondary Antibody, HRP conjugate (both from Cederlane). […] TCID50 were calculated by the Reed and Muench method. […]
Differences in weight loss between groups was analysed by repeated measures two-way ANOVA. […]

Structures are written as SMILES.

As for `CC(C)c1ccc(Cn2ccc3c4c(N)nc(NC5CC5)nc4ccc32)cc1` [PAR-1 antagonist, N3-cyclopropyl-7-{[4(I-methylethyl)phenyl]methyl)-7H-pyrrolo[3,2-f]quinazoline-I,3-diamine], the “pulmonary inflammation (histopathology)” value with hMPV strain C-85473 (day 5 post hMPV infection, infected treated vs infected untreated mice) is given as “no pulmonary inflammation was observed”. Also, the “pulmonary inflammatory cytokine/chemokine levels compared to all other groups of infected mice” value in the experiment on hMPV strain C-85473 (day 5 post infection, Luminex) is on record as “significant reduction in all of the evaluated inflammatory cytokine/chemokine levels”. For the same compound, the pulmonary viral titers result in the experiment on hMPV strain C-85473 (day 5 post infection, vs other infected groups) is given as “reduced pulmonary viral titers”. Further, the “weight loss (and symptoms)” value in the experiment with hMPV strain C-85473 (hMPV-infected mice, vs infected untreated mice) is “abolished all weight loss and symptoms”. In addition, in the experiment on hRSV strain 15 595, the lung viral titers result is reported as “significantly reduced viral titers”.
